Assay results: patent US20250171459A1, “2-METHYL-4',5'-DIHYDROSPIRO[PIPERIDINE-4,7'-THIENO[2,3-C]PYRAN] DERIVATIVES AS INHIBITORS OF APOL1 AND METHODS OF USING SAME” (Vertex Pharmaceuticals Incorporated, priority 2022, published 2025)

molecular target: T1, APOL1 (Homo sapiens, UniProt O14791); test: MultiTox-Fluor Multiplex Cytotoxicity Assay in tet-inducible APOL1 T-REx-HEK293 cells (cell rescue, ratio of dead to live cells); assay type: cell-based; settings: tet-inducible transgenic APOL1 T-REx-HEK293 cell lines, 50 ng/mL tet, 24 hours; read-out: IP50 (i.e., IC50 for cell proliferation)
T1 sequence (O14791 1-398 S342G/I384M): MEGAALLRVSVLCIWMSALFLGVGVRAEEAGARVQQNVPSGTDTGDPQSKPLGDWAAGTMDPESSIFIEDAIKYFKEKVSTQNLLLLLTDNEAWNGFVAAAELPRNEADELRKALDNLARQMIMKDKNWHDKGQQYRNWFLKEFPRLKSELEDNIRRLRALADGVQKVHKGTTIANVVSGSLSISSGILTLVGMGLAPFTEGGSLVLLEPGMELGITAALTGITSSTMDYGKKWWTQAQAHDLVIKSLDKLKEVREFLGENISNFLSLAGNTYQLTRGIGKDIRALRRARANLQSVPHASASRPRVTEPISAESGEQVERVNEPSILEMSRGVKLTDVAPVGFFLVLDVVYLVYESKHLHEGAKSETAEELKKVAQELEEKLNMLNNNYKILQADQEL
Text: The MultiTox-Fluor Multiplex Cytotoxicity Assay is a single-reagent-addition, homogeneous, fluorescence assay that measures the number of live and dead cells simultaneously in culture wells. The assay measures cell viability and cytotoxicity by detecting two distinct protease activities. […] The substrate enters intact cells, where it is cleaved to generate a fluorescent signal proportional to the number of living cells. […] A ratio of dead to live cells is used to normalize data.
The MultiTox reagent was added to each well and placed back in the incubator for an additional 30 minutes. The plate was read on the EnVision plate reader. A ratio of dead to live cells was used to normalize, and data was imported, analyzed, and fit using Genedata Screener (Basel, Switzerland) software. Data was normalized using percent of control, no tet (100% viability), and 50 ng/mL tet treated (0% viability), and fit using Smart Fit. The reagents, methods, and complete protocol for the MultiTox assay are described below.
Cells were washed with DPBS and then trypsinized to dissociate from the flask. Media was used to quench the trypsin, cells were then pelleted at 200 g and resuspended in fresh cell assay media (DMEM, 2% Tet-free FBS, 2 mM L-glutamine, 100 Units/mL penicillin-streptomycin). […] The plates were then incubated at room temperature for one hour.
Tetracycline is needed to induce APOL1 expression. 1 mg/mL tet stock in water was diluted to 250 ng/mL (5×) in cell assay media.
Compounds were dispensed at 200 nL in DMSO. The final top concentration was 10 μM with a 10 point 3-fold dilution in duplicate in the MultiTox assay.
20 μL was transferred from the 5× tet plate to the ARP and mixed, then 5 μL of 5× tet and the compounds were transferred to the cell plate and mixed using the Bravo. The cell plate was placed in the humidified 37° C. 5% CO2 incubator for 24 hours.
The MultiTox-Fluor Multiplex Cytotoxicity Assay was performed in accordance with the manufacturer's protocol. After cells were incubated with tet and compound for 24 hours, 25 μL of 1× MultiTox reagent was added to each well using the Multidrop dispenser; the plates were placed on a plate shaker (600 rpm) for 2 minutes, then centrifuged briefly and placed back in the 37° C. incubator for 30 minutes. The cell viability (excitation: 400 nm, emission: 486 nm) and cytotoxicity (excitation: 485 nm, emission: 535 nm) were read using the EnVision plate reader. A ratio of dead (cytotoxicity) to live (viability) cells was reported. Data was exported and analyzed in Genedata. Data was normalized using percent of control, no tet (100% viability), and 50 ng/mL tet treated (0% viability), and fit using Smart Fit settings in Genedata.

Row | SMILES | IC50
1 | Cc1cncc(N2CCC(CN3CC[C@]4(C[C@@H]3C)OCCc3cc(Cl)sc34)CC2)n1 [Compound 677] | 500 to 1000 nM
2 | CCc1cc2c(s1)CCO[C@@]21CCN(CC2CN(C(=O)c3cnc(C#N)nc3)C2)[C@@H](C)C1 [Compound 458] | 100 to 500 nM
3 | C[C@H]1C[C@@]2(CCN1Cc1cnn(C)c1)OCC(C)(O)c1cc(Cl)sc12 (stereo partly drawn) [Compound 848, (2′S, 7R)-2-chloro-2′,4-dimethyl-1′-[(1-methylpyrazol-4-yl)methyl]spiro[5H-thieno[2,3-c]pyran-7,4′-piperidine]-4-ol] | < 100 nM
4 | CCc1cc2c(s1)CCOC21CCN(Cc2cc(O)ccn2)CC1 [Compound 1152] | 500 to 1000 nM
5 | CCc1cc2c(s1)CCO[C@@]21CCN(C[C@H]2C[C@@H](NS(=O)(=O)c3ccc(C(N)=O)cc3)C2)[C@@H](C)C1 [Compound 413] | < 100 nM
6 | CCOC(=O)N[C@H]1C[C@@H](CN2CC[C@]3(C[C@@H]2C)OCCc2sc(CC)cc23)C1 [Compound 375] | < 100 nM
7 | C[C@H]1C[C@@]2(CCN1Cc1cnn(CC(O)CC(C)(C)C#N)c1)OCCc1c2sc(C(F)(F)F)c1CO (stereo partly drawn) [Compound 963] | < 100 nM
8 | CCc1cc2c(s1)CCO[C@@]21CCN(CCOC)[C@@H](C)C1 [Compound 278, (2′S,4R)-2-ethyl-1′-(2-methoxyethyl)-2′-methyl-spiro[6,7-dihydrothieno[3,2-c]pyran-4,4′-piperidine]] | 100 to 500 nM
9 | CCc1cc2c(s1)CCO[C@@]21CCN(CC2CN(C(=O)CS(=O)(=O)c3ccccc3)C2)[C@@H](C)C1 [Compound 456] | 100 to 500 nM
10 | CCc1cc2c(s1)CCO[C@@]21CCN(CCO)[C@@H](C)C1 [Compound 239] | 100 to 500 nM
11 | C[C@H]1C[C@@]2(CCN1Cc1cccc(OCCO)c1)OC[C@H](O)c1cc(Cl)sc12 [Compound 803] | 100 to 500 nM
12 | CCc1cc2c(s1)CCOC21CCN(Cc2ccc(NS(=O)(=O)C3CC3)cc2)CC1 [Compound 1163] | 100 to 500 nM
13 | CCc1cc2c(s1)CCOC21CCN(Cc2ccc(C(=O)N[C@H](C)CO)nc2)CC1 [Compound 1046] | < 100 nM
14 | CCc1cc2c(s1)CCO[C@@]21CCN(Cc2cn(CC(C)(C)C(C)O)nn2)[C@@H](C)C1 (stereo partly drawn) [Compound 120] | 100 to 500 nM
15 | CCc1cc2c(s1)CCO[C@@]21CCN(Cc2cn(CC3(OCCO)CCOCC3)nn2)[C@@H](C)C1 [Compound 87] | 100 to 500 nM
16 | CCc1cc2c(s1)CCO[C@@]21CCN(CC2CN(C(=O)CS(C)(=O)=O)C2)[C@@H](C)C1 [Compound 449] | 100 to 500 nM
17 | CCc1cc2c(s1)C[C@@H](C)OC21CCN(Cc2cnn(C)c2)CC1 [Compound 1176] | 500 to 1000 nM
18 | CCc1cc2c(s1)CCOC21CCN(Cc2cn(CC(c3cccnc3)N3CCOCC3)nn2)C(C)C1 (stereo not drawn) [Compound 92] | 500 to 1000 nM
19 | CCc1cc2c(s1)CCO[C@@]21CCN(C[C@H]2C[C@@H](NC(=O)CCS(C)(=O)=O)C2)[C@@H](C)C1 [Compound 356] | < 100 nM
20 | C[C@H]1C[C@@]2(CCN1Cc1cnn(CCS(C)(=O)=O)c1)OCCc1cc(CC(F)F)sc12 [Compound 559, (2′S, 7R)-2-(2,2-difluoroethyl)-2′-methyl-1′-[[1-(2-methylsulfonylethyl)pyrazol-4-yl]methyl]spiro[4,5-dihydrothieno[2,3-c]pyran-7,4′-piperidine]] | < 100 nM
21 | CCc1cc2c(s1)CCOC21CCN(Cc2cnn(CCS(=O)(=O)NC)c2)CC1 [Compound 1127] | < 100 nM
22 | C[C@H]1C[C@@]2(CCN1Cc1ccc(S(C)(=O)=O)nc1)OCCc1c2sc(Cl)c1CO [Compound 734] | 100 to 500 nM
23 | CCc1cc2c(s1)CCO[C@@]21CCN(CC2CN(C(=O)CC3CCS(=O)(=O)C3)C2)[C@@H](C)C1 (stereo partly drawn) [Compound 465] | < 100 nM
24 | CCc1cc2c(s1)CCO[C@@]21CCN(Cc2cn(-c3cnc(C)nc3)nn2)[C@@H](C)C1 [Compound 70] | < 100 nM
25 | CCc1cc2c(s1)CCO[C@@]21CCN(CC(O)C(F)(F)F)[C@@H](C)C1 (stereo partly drawn) [Compound 243] | 100 to 500 nM
26 | C[C@H]1C[C@@]2(CCN1Cc1cnn(C[C@H](O)C(C)(C)O)c1)OC[C@@H](O)c1cc(C(F)(F)F)sc12 [Compound 889, (2S)-1-[4-[[(2′S,4S,7R)-4-hydroxy-2′-methyl-2-(trifluoromethyl)spiro[4,5-dihydrothieno[2,3-c]pyran-7,4′-piperidine]-1′-yl]methyl]pyrazol-1-yl]-3-methyl-butane-2,3-diol] | < 100 nM

Row | SMILES | IC50
27 | CCc1cc2c(s1)CCO[C@@]21CCN(CC2CN(C(=O)c3ncc(C)[nH]3)C2)[C@@H](C)C1 [Compound 470] | < 100 nM
28 | C[C@H]1C[C@@]2(CCN1Cc1cn(CCCS(C)(=O)=O)nn1)OCCc1c2sc(C(F)(F)F)c1CO [Compound 1001] | 100 to 500 nM
29 | C[C@H]1C[C@@]2(CCN1Cc1cnn(CCCC(N)=O)c1)OC[C@@H](O)c1cc(C(F)(F)F)sc12 [Compound 927] | < 100 nM
30 | CCc1cc2c(s1)CCOC21CCN(Cc2cn(CCS(=O)(=O)C3CC3)nn2)CC1 [Compound 1086] | 500 to 1000 nM
31 | Cc1ncc(CN2CC[C@]3(C[C@@H]2C)OCCc2cc(Cl)sc23)n1C [Compound 683] | 500 to 1000 nM
32 | CCc1cc2c(s1)CCO[C@@]21CCN(CC2CN(C(=O)CN3CCOC3=O)C2)[C@@H](C)C1 [Compound 477] | < 100 nM
33 | CCc1cc2c(s1)CCO[C@@]21CCN(Cc2cn(CC3(C(O)C(C)C)CC3)nn2)[C@@H](C)C1 (stereo partly drawn) [Compound 74] | 100 to 500 nM
34 | CCc1cc2c(s1)CCO[C@@]21CCN(Cc2cn(Cc3cnn(CCO)c3)nn2)[C@@H](C)C1 [Compound 60] | < 100 nM
35 | CCc1cc2c(s1)CCO[C@@]21CCN(Cc2cn(C(C)c3nnc4n3CCC4)nn2)[C@@H](C)C1 (stereo partly drawn) [Compound 186] | 100 to 500 nM
36 | CCc1cc2c(s1)CCO[C@@]21CCN(Cc2cn(CC(N)=O)nn2)[C@@H](C)C1 [Compound 181] | 100 to 500 nM
37 | CCN1CC[C@]2(C[C@@H]1C)OCCc1cc(CC(F)F)sc12 [Compound 572] | 100 to 500 nM
38 | CCc1cc2c(s1)CCO[C@@]21CCN(CC(O)c2ccc(F)c(F)c2)[C@@H](C)C1 (stereo partly drawn) [Compound 253] | 100 to 500 nM
39 | C[C@H]1C[C@@]2(CCN1CC(O)c1ccc(F)cc1)OCCc1cc(CC(F)F)sc12 (stereo partly drawn) [Compound 602] | < 100 nM
40 | CCc1cc2c(s1)CCO[C@@]21CCN(CC2CN(C(=O)N(C)C)C2)[C@@H](C)C1 [Compound 490] | 500 to 1000 nM
41 | CCc1cc2c(s1)C(C)COC21CCN(Cc2cnn(C)c2)CC1 (single isomer, unassigned) [Compound 1170, 2-ethyl-7-methyl-1′-[(1-methylpyrazol-4-yl)methyl]spiro[6,7-dihydrothieno[3,2-c]pyran-4,4′-piperidine]] | 100 to 500 nM
42 | C[C@H]1CC2(CCN1Cc1cnn(C)c1)OC(CO)Cc1sc(Cl)cc12 (stereo partly drawn) [Compound 530] | < 100 nM
43 | CCc1cc2c(s1)CCO[C@@]21CCN(Cc2cn(Cc3cn(C)nn3)nn2)[C@@H](C)C1 [Compound 179] | < 100 nM
44 | C[C@H]1C[C@@]2(CCN1Cc1ccc(OCC(=O)N3CCOCC3)cc1)OCCc1cc(Cl)sc12 [Compound 648] | < 100 nM
45 | C[C@H]1C[C@@]2(CCN1Cc1cn(CC(C)(CO)CO)nn1)OCCc1cc(Cl)sc12 [Compound 629] | 100 to 500 nM
46 | CCc1cc2c(s1)CCO[C@@]21CCN(Cc2cn(C3C[C@@H](CO)NC3=O)nn2)[C@@H](C)C1 (stereo partly drawn) [Compound 166] | 500 to 1000 nM
47 | CCc1cc2c(s1)CCO[C@@]21CCN(CC2CN(C(=O)c3n[nH]c(=O)[nH]3)C2)[C@@H](C)C1 [Compound 486] | 100 to 500 nM
48 | CCc1cc2c(s1)CCO[C@@]21CCN(CC2(O)CCS(=O)(=O)CC2)[C@@H](C)C1 [Compound 257] | 100 to 500 nM
49 | CCc1cc2c(s1)CCOC21CCN(Cc2cn(C(C)CC(N)=O)nn2)C(C)C1 (stereo not drawn) [Compound 148] | 100 to 500 nM
50 | CCc1cc2c(s1)CCO[C@@]21CCN(C[C@H]2C[C@@H](NC(=O)c3ccncc3C)C2)[C@@H](C)C1 [Compound 340] | < 100 nM
51 | CC(=O)Nc1ccc(CN2CC[C@]3(C[C@@H]2C)OCCc2cc(Cl)sc23)cc1 [Compound 635] | < 100 nM
